Data as given in patent publication US10703764B2, “Benzopiperazine compositions as BET bromodomain inhibitors” (FORMA Therapeutics, Inc., priority 2013, dated 2020).

How the values were obtained:
BRD4 BD2 = biological target: T1, BRD4 BD2 (Homo sapiens, UniProt O60885); experiment: AlphaScreen binding assay, BRD4 Bromodomain 2
T1 construct: made in house
In short: (§1)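 Compound dilution series were mixed with His-tagged BRD4 bromodomain and biotinylated tetra-acetylated H4 (1-21) peptide at pH 7.3 (BD1 and peptide at 50 nM, BD2 and peptide at 100 nM). Donor and acceptor beads were then added, and plates were equilibrated at least 1 h before reading. IC50 values were fitted with a four-parameter logistic model.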

BRD4 BD1 = biological target: T2, BRD4 BD1 (Homo sapiens, UniProt O60885); experiment: AlphaScreen binding assay, BRD4 Bromodomain 1
T2 construct: made in house
In short: as §1

| IC50 (BRD4 BD2) | IC50 (BRD4 BD1) | SMILES |
| --- | --- | --- |
| > 0.5 µM | > 10 µM | COc1ccccc1CNC(=O)N1C[C@H](C)N(C(C)=O)c2ccc(-c3ccc(S(C)(=O)=O)cc3)cc21 [Example I-972] |
| > 0.5 µM | > 10 µM | CC(=O)N1c2ccccc2N(C(=O)C2CCCC2)C[C@@H]1C [Example I-714] |
| 0.05 to 0.5 µM | 1 to 10 µM | CNC(=O)Cn1cc(-c2ccc3c(c2)N(C(=O)C2CC2)C[C@H](C)N3C(C)=O)cn1 [Example I-132, (S)-2-(4-(1-acetyl-4-(cyclopropanecarbonyl)-2-methyl-1,2,3,4-tetrahydroquinoxalin-6-yl)-1H-pyrazol-1-yl)-N-methylacetamide] |
| 0.05 to 0.5 µM | 1 to 10 µM | CC(=O)N1c2ccc(-c3cccc4c3cnn4C)cc2N(C(=O)c2ccco2)C[C@@H]1C [Example I-858] |
| > 0.5 µM | > 10 µM | C[C@H]1CN(C(=O)c2ccco2)c2cc(-c3ccc(S(C)(=O)=O)cc3)ccc2N1S(C)(=O)=O [Example I-96, (S)-furan-2-yl(3-methyl-4-(methylsulfonyl)-7-(4-(methylsulfonyl)phenyl)-3,4-dihydroquinoxalin-1(2H)-yl)methanone] |
| > 0.5 µM | > 10 µM | CC(=O)N1c2ccc(-c3cnn(C4CC4)c3)nc2N(C(=O)NC(C)C)C[C@@H]1C [Example I-193, (S)-1-acetyl-6-(1-cyclopropyl-1H-pyrazol-4-yl)-N-isopropyl-2-methyl-2,3-dihydropyrido[2,3-b]pyrazine-4(1H)-carboxamide] |
| > 0.5 µM | > 10 µM | CC(=O)N1c2ccccc2N(Cc2ccc(N3CCOCC3)nc2)C[C@@H]1C [Example I-922] |
| 0.05 to 0.5 µM | 1 to 10 µM | CC(=O)N1c2ccc(-c3cnn(CC(=O)N(C)C4CC4)c3)cc2N(C(=O)C2CC2)C[C@@H]1C [Example I-658] |
| > 0.5 µM | 1 to 10 µM | C[C@H]1CN(C(=O)OC2COC2)c2cc(-c3cnn(C4CC4)c3)ccc2N1C(=O)C1CC1 [Example I-998] |
| > 0.5 µM | > 10 µM | CC(=O)N1c2ccccc2N(C(=O)c2cnc(-c3cccnc3)s2)C[C@@H]1C [Example I-726] |
| 0.05 to 0.5 µM | 1 to 10 µM | CC(=O)N1c2ccc(-c3ccc(S(C)(=O)=O)cc3)nc2N(C(=O)c2ccco2)C[C@@H]1C [Example I-300] |
| 0.05 to 0.5 µM | 1 to 10 µM | COC(=O)N1c2ccc(-c3ccc(C4(O)COC4)cc3)cc2N(C(=O)C2CC2)C[C@@H]1C [Example I-459] |
| > 0.5 µM | 1 to 10 µM | CC(C)OC(=O)N1C[C@H](C)N(C(=O)C2CC2)c2ccc(-c3cnn(CCN(C)C)c3)cc21 [Example I-646] |
| > 0.5 µM | > 10 µM | CC(=O)N1c2ccc(-c3ccc(S(C)(=O)=O)cc3)cc2N(C(=O)NCc2ccco2)C[C@@H]1C [Example I-980] |
| 0.05 to 0.5 µM | 1 to 10 µM | CC(=O)N1c2ncc(-c3ccc(S(C)(=O)=O)cc3)cc2N(C(=O)c2ccco2)C[C@@H]1C [Example I-271] |
| > 0.5 µM | 1 to 10 µM | COC(=O)N1c2ccc(-c3ccc(NS(C)(=O)=O)cc3)cc2N(C(=O)Oc2cccnc2)C[C@@H]1C [Example I-1278] |
| > 0.5 µM | > 10 µM | CC(=O)N1c2ccccc2N(C(=O)c2ccncc2)C[C@@H]1C [Example I-704] |
| 0.05 to 0.5 µM | 1 to 10 µM | COC(=O)N1c2ccc(-c3cnn(C4CC4)c3)cc2N(C(=O)Oc2cccnc2)C[C@@H]1C [Example I-1283] |
| > 0.5 µM | > 10 µM | CC(=O)N1c2ccc(-c3ccc(S(C)(=O)=O)cc3)cc2N(C(=O)OC(C)C)C[C@H]1C [Example I-297] |

| IC50 (BRD4 BD2) | IC50 (BRD4 BD1) | SMILES |
| --- | --- | --- |
| > 0.5 µM | > 10 µM | CC(=O)N1c2ccccc2N(C(=O)COc2ccccc2)C[C@@H]1C [Example I-712] |
| > 0.5 µM | > 10 µM | CC(=O)N1c2ccccc2N(Cc2ccc(O)c(C)c2)C[C@@H]1C [Example I-904] |
| 0.05 to 0.5 µM | 1 to 10 µM | CC(=O)N1c2ccc(-c3cnn(CCS(C)(=O)=O)c3)cc2N(C(=O)C2CC2)CC1C (stereo not shown) [Example I-344] |
| > 0.5 µM | > 10 µM | CC(=O)N1c2ccc(-c3ncc(N)s3)cc2N(C(=O)c2ccco2)C[C@@H]1C [Example I-431] |
| 0.05 to 0.5 µM | 1 to 10 µM | CC(=O)N1c2ccc(-c3ccc4c(c3)CCN4S(C)(=O)=O)cc2N(C(=O)Oc2cccnc2)C[C@@H]1C [Example I-1290] |
| > 0.5 µM | 1 to 10 µM | CCCn1cc(-c2cnc3c(c2)N(C(=O)c2ccco2)C[C@H](C)N3C(C)=O)cn1 [Example I-273] |
| 0.05 to 0.5 µM | 1 to 10 µM | CC(=O)N1c2ccc(-c3ccc(Cl)cc3)cc2N(C(=O)c2ccco2)C[C@@H]1C [Example I-805] |
| > 0.5 µM | > 10 µM | CC(=O)N1c2ccccc2N(C(=O)CCc2ccccc2)C[C@@H]1C [Example I-696] |
| 0.05 to 0.5 µM | 0.1 to 1 µM | CC(=O)N1c2ccc(-c3cnn(C4COC4)c3)cc2N(C(=O)OCC(C)(F)F)C[C@@H]1C [Example I-68, (S)-2,2-difluoropropyl 4-acetyl-3-methyl-7-(1-(oxetan-3-yl)-1H-pyrazol-4-yl)-3,4-dihydroquinoxaline-1(2H)-carboxylate] |
| 0.05 to 0.5 µM | 1 to 10 µM | CC(=O)N1c2ccc(-c3ccc(N4CCCC4)cc3)cc2N(C(=O)c2ccco2)C[C@@H]1C [Example I-298] |
| > 0.5 µM | > 10 µM | CC(=O)N1c2ccccc2N(C(=O)c2cccc(Cl)c2)C[C@@H]1C [Example I-718] |
| > 0.5 µM | > 10 µM | CC(=O)N1c2ccccc2N(C(=O)CN2CCCCCC2=O)C[C@@H]1C [Example I-764] |
| > 0.5 µM | > 10 µM | CC(=O)N1c2ccccc2N(C(=O)COc2ccc(Cl)cc2)C[C@@H]1C [Example I-732] |
| 0.05 to 0.5 µM | 1 to 10 µM | CC(=O)N1c2ccc(-c3cnn(C4CC4)c3)cc2N(C(=O)Oc2c(Cl)cc(Cl)c3cccnc23)C[C@@H]1C [Example I-1197] |
| 0.05 to 0.5 µM | 1 to 10 µM | COC(=O)N1c2ccc(-c3cnn(C4CC4)c3)cc2N(C(=O)OC2COC2)C[C@@H]1C [Example I-999] |
| > 0.5 µM | > 10 µM | CC(=O)N1c2ccccc2N(S(=O)(=O)c2ccc(C)cc2C)C[C@@H]1C [Example I-949] |
| > 0.5 µM | > 10 µM | CC(=O)N1c2ccc(-c3ccc(S(C)(=O)=O)cc3)cc2N(C(=O)c2cn3ccncc3n2)C[C@@H]1C [Example I-779] |
| > 0.5 µM | > 10 µM | COc1cc(CN2C[C@H](C)N(C(C)=O)c3ccccc32)cc(OC)c1 [Example I-902] |
| > 0.5 µM | > 10 µM | CC(=O)N1c2ccc(-c3ccc(S(C)(=O)=O)cc3)cc2N(C(=O)c2nccn2C)C[C@@H]1C [Example I-784] |

| IC50 (BRD4 BD2) | IC50 (BRD4 BD1) | SMILES |
| --- | --- | --- |
| 0.05 to 0.5 µM | 1 to 10 µM | CC(=O)N1c2ccc(-c3ccc(S(C)(=O)=O)cc3)cc2N(C(=O)Oc2ccc(Cl)cc2)C[C@@H]1C [Example I-226] |
| > 0.5 µM | > 10 µM | COc1cc(Cl)ccc1S(=O)(=O)N1C[C@H](C)N(C(C)=O)c2ccccc21 [Example I-959] |
| 0.05 to 0.5 µM | 1 to 10 µM | COC(=O)N1c2ccc(-c3ccc(CS(N)(=O)=O)cc3)cc2N(C(=O)C2CC2)C[C@@H]1C [Example I-460] |
| 0.05 to 0.5 µM | > 10 µM | CC(=O)N1c2ccccc2N(Cc2ccccc2OCCN(C)C)C[C@@H]1C [Example I-906] |
| > 0.5 µM | > 10 µM | CC(=O)N1c2ccccc2N(S(=O)(=O)Cc2ccc(C#N)cc2)C[C@@H]1C [Example I-963] |
| > 0.5 µM | > 10 µM | CC(=O)N1c2ccccc2N(C(=O)CSc2ccccc2)C[C@@H]1C [Example I-727] |
| 0.05 to 0.5 µM | 1 to 10 µM | COc1ncc(F)cc1OC(=O)N1C[C@H](C)N(C(C)=O)c2ccc(-c3cnn(C4CC4)c3)cc21 [Example I-1208] |
| 0.05 to 0.5 µM | 1 to 10 µM | CC(=O)N1c2ccc(-c3cnn(C4COC4)c3)cc2N(C(=O)CC2CCCC2)C[C@@H]1C [Example I-111, (S)-1-(4-acetyl-3-methyl-7-(1-(oxetan-3-yl)-1H-pyrazol-4-yl)-3,4-dihydroquinoxalin-1(2H)-yl)-2-cyclopentylethanone] |
| > 0.5 µM | > 10 µM | CC(=O)N1c2ccccc2N(C(=O)c2ccc(-n3cccn3)cc2)C[C@@H]1C [Example I-723] |
| > 0.5 µM | > 10 µM | COc1cncc(CN2C[C@H](C)N(C(C)=O)c3ccccc32)c1 [Example I-914] |
| 0.05 to 0.5 µM | 1 to 10 µM | CCNC(=O)Cn1cc(-c2ccc3c(c2)N(C(=O)C2CC2)CC(C)N3C(C)=O)cn1 (stereo not shown) [Example I-681] |
| < 0.05 µM | 1 to 10 µM | CC(=O)N1c2ccc(-c3cnc(N(C)C)nc3)cc2N(C(=O)c2ccco2)C[C@@H]1C [Example I-831] |
| > 0.5 µM | > 10 µM | CC(=O)N1c2ccccc2N(S(=O)(=O)Cc2cccc(C#N)c2)C[C@@H]1C [Example I-958] |
| > 0.5 µM | > 10 µM | CC(=O)N1c2ccc(-c3ccc(S(C)(=O)=O)cc3)cc2N(C(=O)c2ccc(S(C)(=O)=O)o2)C[C@@H]1C [Example I-888] |
| > 0.5 µM | > 10 µM | CC(=O)N1c2ccc(-c3cnn(C4COC4)c3)cc2N(C(=O)C(C)C)C[C@@H]1C [Example I-109, (S)-1-(4-acetyl-3-methyl-7-(1-(oxetan-3-yl)-1H-pyrazol-4-yl)-3,4-dihydroquinoxalin-1 (2H)-yl)-2-methylpropan-1-one] |
| 0.05 to 0.5 µM | 1 to 10 µM | COC(=O)N1c2ccc(-c3cnn(CC(=O)O)c3)cc2N(C(=O)OC(C)C)C[C@@H]1C [Example I-341] |
| > 0.5 µM | 1 to 10 µM | CC(C)OC(=O)N1C[C@H](C)N(C(=O)C2CC2)c2ccc(-c3ccc(C(=O)NCc4ncco4)cc3)cc21 [Example I-585] |
| > 0.5 µM | > 10 µM | CC(=O)N1c2ccccc2N(C(=O)c2cccc3ccccc23)C[C@@H]1C [Example I-719] |
